According to patent US20090203763A1, “SUBSTITUTED BENZHYDRYLETHERS” (AUSPEX PHARMACEUTICALS, INC., priority 2008, published 2009):

Key:
[1] = after both one-time and repeated (daily) administration; Verster et al. 2004; cited from earlier work
[2] = In vitro human liver microsomal (HLM) stability assay; format: in vitro ADME; conditions: human liver microsomes 1 mg per mL protein, 1 μM compound, about 37° C.; as compared to the non-isotopically enriched drug
Procedure: Liver microsomal stability assays were conducted at 1 mg per mL liver microsome protein with an NADPH-generating system in 2% NaHCO3 (2.2 mM NADPH, 25.6 mM glucose 6-phosphate, 6 units per mL glucose 6-phosphate dehydrogenase and 3.3 mM MgCl2). Test compounds were prepared as solutions in 20% acetonitrile-water and added to the assay mixture (final assay concentration 1 μM) and incubated at about 37° C. Final concentration of acetonitrile in the assay should be <1%. Aliquots (50 μL) were taken out at times 0, 0.25, […], and 1 hours, and diluted with ice cold acetonitrile (200 μL) to stop the reactions. Samples were centrifuged at 12,000 RPM for about 10 min to precipitate proteins. Supernatants were transferred to micro centrifuge tubes and stored for LC/MS/MS analysis of the degradation half-life of the test compounds.
Results of In Vitro Human Liver Microsomal (HLM) Stability Assay—Percent Change in Degradation Half-Life

Structure (SMILES) | Percent Change in Degradation Half-Life, 0%-50% [2] | Percent Change in Degradation Half-Life, −25%-0% [2] | further results
CN1CCC[C@@H]1CCO[C@](C)(c1ccccc1)c1ccc(Cl)cc1 [Clemastine, 2-[2-[1-(4-chlorophenyl)-1-phenyl-ethoxy]ethyl]-1-methyl-pyrrolidine] | – | – | effect on driving performance [1]: significantly impair driving performance
O=C(O)/C=C/C(=O)O.[2H]C([2H])(C[C@H]1CCCN1C)O[C@](C)(c1ccccc1)c1ccc(Cl)cc1 [Example 2, (R)-2-[2-[(R)-1-(4-Chlorophenyl)-1-phenylethoxy]ethyl-2,2-d2]-1-methylpyrrolidine fumarate] | + (0%-50%) | – | –
O=C(O)/C=C/C(=O)O.[2H]C([2H])(O[C@](C)(c1ccccc1)c1ccc(Cl)cc1)C([2H])([2H])[C@H]1CCCN1C [Example 3, (R)-2-[2-[(R)-1-(4-Chlorophenyl)-1-phenylethoxy]ethyl-2,2-d4]-1-methyl-pyrrolidine fumarate] | + (0%-50%) | – | –
O=C(O)/C=C/C(=O)O.[2H]C([2H])([2H])N1CCC[C@@H]1CCO[C@](C)(c1ccccc1)c1ccc(Cl)cc1 [Example 4, (R)-2-[2-[(R)-1-(4-Chlorophenyl)-1-phenylethoxy]ethyl]-1-methyl-d3-pyrrolidine fumarate] | – | + (−25%-0%) | –
O=C(O)/C=C/C(=O)O.[2H]C([2H])(C[C@H]1CCCN1C([2H])([2H])[2H])O[C@](C)(c1ccccc1)c1ccc(Cl)cc1 [Example 5, (R)-2-[2-[(R)-1-(4-Chlorophenyl)-1-phenylethoxy]ethyl-2,2-d2]-1-methyl-d3-pyrrolidine fumarate] | – | + (−25%-0%) | –
O=C(O)/C=C/C(=O)O.[2H]C([2H])([2H])N1CCC[C@@H]1C([2H])([2H])C([2H])([2H])O[C@](C)(c1ccccc1)c1ccc(Cl)cc1 [Example 6, (R)-2-[2-[(R)-1-(4-Chlorophenyl)-1-phenylethoxy]ethyl-1,1,2,2-d4]-1-methyl-d3-pyrrolidine fumarate] | + (0%-50%) | – | –
